Experimental data from paper PMC3127140, “In Vivo Anti-Tumor Activity of Polypeptide HM-3 Modified by Different Polyethylene Glycols (PEG)” (International Journal of Molecular Sciences, 2011).

System: Human hepatic carcinoma SMMC-7721 cell line
Test: Inhibitory effect on growth of human hepatoma SMMC-7721 xenografts in nude mice (tumor weight / tumor volume)
Assay type: in vivo, BALB/c nude mouse
Conditions: SMMC-7721 xenograft in BALB/c nude mice, n = 6 per group, i.v. for 21 days, tumors weighed the next day; (W − Wt)/W versus normal saline control; Taxol 10 mg/kg twice a week; HM-3 3 mg/(kg·d) twice a day; ALD-mPEG5k-HM-3 11.4 mg/(kg·d) once a day; ALD-mPEG10k-HM-3 and SC-mPEG10k-HM-3 19.9 mg/(kg·2d) every two days; SC-mPEG20k-HM-3 36.7 mg/(kg·2d) every two days (dose as total PEG conjugate)
Protocol: Human hepatic carcinoma SMMC-7721 cell line was purchased from American type Cell Culture (ATCC, Shanghai, China) and maintained in Dulbecco’s modified Eagle’s medium (DMEM) with 10% fetal bovine serum and antibiotics. BALB/c nude female mouse (SPF grade, 4–5 w, 20.9 ± 0.492 g) were purchased from the Shanghai Laboratory Animal Center of the Chinese Academy of Sciences.
SMMC-7721 cells were cultured in DMEM medium under 5% CO2/saturated humidified air at 37 °C. Cells were digested with the mixture of the trypsin (0.25%) and EDTA (0.02%) at logarithmic growth phase and passaged every 3–4 day. […]
All the mice (20 g) were administrated intravenously for 21 days and the tumor volumes were measured every two days. […] Antitumor ratio determined by the tumor volumes is (V − Vt)/V (V is the average tumor volume of the control group, and Vt is the average tumor volume of the treated group). The antitumor ratio by the tumor weights was also calculated as (W − Wt)/W (W is the average tumor weight of the control group, and Wt is the average tumor weight of the treatment group).
The data was analyzed using the statistics software SPSS13.0, which are expressed as mean ± SD. Statistical significance was assessed using the Student t test. […]

CC(=O)O[C@H]1C(=O)[C@@]2(C)[C@H]([C@H](OC(=O)c3ccccc3)[C@]3(O)C[C@H](OC(=O)[C@H](O)[C@@H](NC(=O)c4ccccc4)c4ccccc4)C(C)=C1C3(C)C)[C@]1(OC(C)=O)CO[C@@H]1C[C@@H]2O [Taxol, paclitaxel]
Tumor weight inhibition rate (inhibition rate of average tumor weight): 44.50%
